# Assay results published in patent US9303076B2, “Cell-penetrating peptides and uses thereof” (Hoffmann-La Roche Inc., priority 2010, dated 2016).
# What was measured:
# [1] = test system: MCF-7 human breast cancer cells; assay: cell viability/apoptosis after 24 h exposure to pro-apoptotic peptides and CPP fusions; assay type: cell-based; details: MCF-7 cells, various concentrations
# Method: (§1) MCF-7 human breast cancer cells were incubated for 24 h in the presence of various concentrations of NRTN (squares), Nur (circles), and NurNRTN (triangles) peptides. The respective amino acid sequences are given in the bottom panel. The experimental approach for assessing cell viability (and thus induction of apoptosis) was the same as in FIG. 3.
# as §1, with “4E-BP1 (circles), TAT4E-BP1” for “NRTN”, “(squares),” for “(squares), Nur (circles),”, “NRTN4E-BP1” for “NurNRTN”, “peptides (top panel). […]” for “peptides.”
# Luminescence was analyzed in an InfiniteF200 luminescence reader.
# Then, the cells were treated with a luminogenic peptide substrate in order to measure dead-cell protease activity, which is released from cells that have lost membrane integrity. […] The luminescence of this assay therefore represents dead cells. The 96 well plates were then analyzed in an InfiniteF200 luminescence reader.
# Despite its proven ability to convert BCL-2 into a pro-apoptotic molecule, addition of the latter peptide (i.e. “Nor/Nur”; SEQ ID NO: 72) to cancer cells, even in high concentrations, is not sufficient to induce apoptosis, as the cellular target protein is located in the cytoplasm, but the peptide per se cannot effectively penetrate through the cell membrane to reach the target. In brief, MCF-7 breast cancer cells were incubated in the presence of this peptide for 24 h.
# (§2) Subsequently, it was evaluated whether the NurNRTN fusion peptide is capable of penetrating cellular membranes and thereby induces pro-apoptotic activity within cells. MCF-7 human breast cancer cells were used as a model. The experimental approach was as described above (cf. Example 1). […] This effect was dose dependent: cytotoxicity increased with increasing concentrations of peptide.
# as §2, with “NRTN4E-BP1” for “NurNRTN”
# recombinant BCL2 = molecular target: T1, recombinant BCL2 (Homo sapiens, UniProt P10415); assay: BCL2 binding to bead-immobilized peptides; details: iodoacetyl beads, elution buffer pH 2.8, protein stain
# T1 construct: purchased Calbiochem/Merck, Darmstadt, Germany
# T1 sequence (P10415 whole entry): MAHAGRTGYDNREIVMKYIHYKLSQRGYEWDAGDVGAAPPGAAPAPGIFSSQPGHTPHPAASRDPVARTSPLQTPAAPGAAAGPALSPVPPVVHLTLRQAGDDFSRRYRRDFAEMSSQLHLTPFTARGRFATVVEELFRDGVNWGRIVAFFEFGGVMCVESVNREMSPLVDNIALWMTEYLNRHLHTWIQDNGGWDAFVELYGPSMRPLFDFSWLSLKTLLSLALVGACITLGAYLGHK
# Method: In order to determine whether the BCL2 binding properties of the Nur77-derived peptide are maintained in the NurNRTN fusion peptide, the respective NurNRTN and NRTN peptides were coupled to iodoacetyl beads (Pierce Biotechnology, Inc., Rockford, Ill., USA). The beads were incubated with recombinant BCL2 (Calbiochem/Merck, Darmstadt, Germany) and washed with PBS and 0.5 M NaCl, 0.025 NaN3, 0.05% Tween20 to remove unbound protein. Specific binding of BCL2 to the immobilized NurNTRN fusion peptide was determined by eluting bound […] from the beads with elution buffer (pH 2.8), transfer of the eluted fraction to nitrocellulose (Invitrogen Corporation, Carlsbad, Calif., USA), and protein detection by means of the MemCode Reversible Protein Stain Kit (Pierce Biotechnology, Inc., Rockford, Ill., USA).
sequence,measurement,setting,value
FSRSLHSLLYDLGLRRLRQRRRLRRERVRA (NurNRTN peptide sequence),cell viability / induction of apoptosis,[1],remarked cytotoxicity
same,BCL2 in eluates from peptide-coated beads,recombinant BCL2,BCL2 can be detected in eluates
